Experimental data as given in paper PMC7031302, “Design and synthesis of new energy restriction mimetic agents: Potent anti-tumor activities of hybrid motifs of aminothiazoles and coumarins” (Scientific Reports, 2020).
Where two headings read alike, the source gives them in different places.

What was measured:
Type in all cases: cell-based, Human
[1] = tested on: colorectal cancer cell lines, HCT116 and HT-29; assay: MTT cell viability, colorectal cancer cell lines (summary statements); conditions: for anticancer activities in initial screening, in words: HT-29 and HCT116 cancer cell lines
Experimental: (§1) The potential cytotoxicity of 24 candidate compounds was initially evaluated at a single concentration level (5 μM). Then a full dose-response curve was plotted for each compound against different colorectal cancer cell lines (HCT116 and HT-29) by MTT assay after 72 h treatments. 4-hydroxycoumarin, OSU-CG5, and OSU-CG12 were used as positive controls. […] Compounds 9b, 9c, 9f, 9i, 11b, and 11c were selected for further studies to determine the full dose-response survival curves using different concentrations (0.1–20 µM) against CRC cell lines and normal fibroblast cell line (F180) at different time points (Fig. 2A–2F and supplementary material Page S63 and S64).
(§2) Human colorectal carcinoma cell lines (HCT116) and (HT-29) were obtained from the European Collection of Cell Cultures (ECACC, UK). The cell lines were cultured in Roswell Park Memorial Institute medium (RPMI-1640, Sigma-Aldrich-St. Louis, MO, USA) supplemented with 10% fetal bovine serum (Sigma-Aldrich-St. Louis, MO, USA) and 1% penicillin/streptomycin (Sigma-Aldrich- Louis, MO, USA). F180 cell line (Human Normal Fibroblast), was kindly given by professor Ekkehard Dikomey (University Cancer Center, Hamburg University, Hamburg, Germany) and were cultured in Dulbecco’s Modified Eagle’s medium (DMEM, Sigma-Aldrich-St. Louis, MO, USA) supplemented with 10% fetal bovine serum (Sigma-Aldrich-St. Louis, MO, USA) and 1% penicillin/streptomycin (Sigma-Aldrich- Louis, MO, USA). All cell incubations were done at 37 °C in a humidified atmosphere of 5% CO2.
(§3) Cell viability was assessed using, 3-(4,5-dimethylthiazol-2-yl)-2,5-diphenyltetrazolium bromide (MTT) assay as previously described. In summary, cancer cell lines or F180 were seeded in complete medium at the density of 3 × 10^3/well and 5 × 10^3/well respectively in 96 well flat-bottom plates. After 24 h, cells were incubated with the candidate compounds at the indicated concentration for (24, 48 or 72 h). DMSO was used as vehicle control and 4-Hydroxycoumarin was purchased from (Sigma-Aldrich, St. Louis, MO, USA) and Cisplatin from Hospira UK Ltd. At the end of treatment, the media were aspirated from each well and incubated with 200 µL of MTT tetrazolium dye (Sigma-Aldrich, St. Louis, MO, USA) at a final concentration of 0.5 mg/ml for 2 h at 37 °C. The reduced MTT crystals were solubilized in 200 µl/well of DMSO and the absorbance was measured at 570 nm using a microplate reader (Thermo-Scientific, Vantaa, Finland).

[2] = tested on: Caspase 3/7 activities in HCT116 cells; assay: Caspase 3/7 activity assay, HCT116; conditions: HCT116, 72 h
Experimental: (§4) Based on this, the energy restriction mediated anticancer activity of the new coumarin tagged aminothiazole derivatives was investigated. The expression levels of PARP, p-Akt, Akt, p-AMPK, AMPK, β-TrCP, LC3A/B-I, LC3A/B-II, caspase-3, cyclin D1, and Bcl-2 proteins were determined by Western blot analysis after 72 h treatment of HT-29 and HCT116 at different concentrations based on the IC50 values of each compound (Fig. 3A,B). […] Moreover, the treatment with 9b and 9f induced caspase 3/7 activation, which was detected by caspase 3/7 activity assay and confirmed by Western blot. The activation of caspases was significant in 9b in both cell lines and significant with 9f in HCT116 cells only and minimal in HT-29 cells (Fig. 3C,D). On the other hand, both 9b and 9f induced dose-dependent proteolytic processing of PARP. […] Besides, the protein expression level of the anti-apoptotic protein, Bcl-2, was reduced in HCT116 upon treatment with both compounds.
Caspase-3/7 activities in HT-29 and HCT116 cells treated with candidate compounds were measured using Caspase-Glo 3/7 assay kit (Promega, Madison, WI, USA) following the manufacturer’s instructions. […] 50 µL of lysate and 50 µL of caspase substrate were added to a white opaque 96-well plate, and the luminescence was measured by Varioskan Flash multimode reader (Thermo-Scientific, Vantaa, Finland)

[3] = tested on: HCT116; assay: MTT cell viability, HCT116; conditions: 72 h, MTT assay, mean ± SD (n = 6), read-out: half-maximal inhibitory concentration (IC50) HCT116
Experimental: as §1, §2, §3

[4] = tested on: HCT116; assay: Western blot analysis, HCT116; conditions: for expression of LC3A-II and LC3B-II: HCT116 (CRC cell lines)
Experimental: as §4
Following 72 h of treatment, cells were lysed and the extracted proteins were quantified using DC protein assay kit (Bio-Rad, Hercules, CA, USA) following the manufacturer’s instructions. Proteins were resolved on 8% or 12% SDS-poly-acrylamide gels, then transferred onto a nitrocellulose membrane using a semi-dry transfer cell. The membranes were blocked in TBS-T containing 5% non-fat milk for 1 h and incubated overnight at 4 °C overnight with indicated primary antibodies (Cell Signaling Technologies, Beverly, MA, USA) and then incubated with goat anti-mouse or anti-rabbit secondary antibody (Cell Signaling Technologies, Beverly, MA, USA) for 1 h at room temperature. Detection was done using chemiluminescence substrate (Bio-Rad, Hercules, CA, USA). β-actin (Cell Signaling Technologies, Beverly, MA, USA) was used as a loading control.
The blots were captured with ChemiDoc Imaging System (Bio-Rad, Hercules, CA, USA) and bands were visualized with the Image Lab v5.2.1 software (Bio-Rad, Hercules, CA, USA).

[5] = HCT116, higher concentrations, except at doses 1 and 2 µM where induced p-mTOR was observed

Row | IC50 ([1]; both cell lines, summary statement) [µM] | IC50 [3] [µM] | IC50 ([3]; Homo sapiens, HCT-116, 72 h) [µM] | Structure (SMILES) | anticancer activities in initial screening, in words [1] | activation of caspases (caspase 3/7) [2] | expression of LC3A-II and LC3B-II ([4]; 72 h, Western blot) | p-mTOR and p-p70S6K levels ([4]; HCT116, 0.5 µM, 72 h, Western blot) | AMPK activation through phosphorylation ([4]; HCT116, 72 h, Western blot) | PARP cleavage ([4]; HCT116, 72 h, Western blot) | expression of β-TrCP and cyclin D ([4]; HCT116, 72 h, Western blot) | protein expression level of Bcl-2 ([4]; HCT116, 72 h, Western blot) | p-mTOR and p-p70S6K levels [4, 5] | Akt phosphorylation ([4]; HCT116, high concentrations, 72 h, Western blot)
1 | < 0.6 | 0.53 ± 0.077 | 0.38 | Cc1cc(=O)oc2cc(Nc3nc(-c4ccc(Br)cc4)cs3)ccc12 [Compound 9b, 7-(4-(4-Bromophenyl)thiazol-2-ylamino)-4-methyl-2H-chromen-2-one] | significant anticancer activities | significant | induced the expression of LC3A-II and LC3B-II | initial increase | enhancement of AMPK activation | induced PARP cleavage | dose-dependent downregulation | reduced | decrease | 
2 |  | 2.56 ± 0.553 | 3.96 | Cc1cc(=O)oc2cc(Nc3nc(-c4cccc([N+](=O)[O-])c4)cs3)ccc12 [Compound 9f, 4-Methyl-7-(4-(3-Nitrophenyl)thiazol-2-ylamino)-2H-chromen-2-one] | significant anticancer activities | significant | induced the expression of LC3A-II and LC3B-II |  | enhancement of AMPK activation |  |  | reduced | decrease | induced Akt phosphorylation
